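Method: 48-hour compound exposure of cells in 96-well plates, five concentrations, linear interpolation of endpoints. GI50 is the concentration that inhibits growth by half.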 Active and inactive are the calls of the source. Cut-off read from the data, not from the text of the source: active = GI50 up to about 1.1 µM and inactive = higher. Bounds are passed on as bounds.

Some test systems named below: HCT-116; SK-MEL-28; COLO 205; RXF 393; OVCAR-5; MDA-N; Hs-578T; MDA-MB-435; BT-549; SNB-75; HL-60; MOLT-4; CCRF-CEM; SK-MEL-5; M14; SF-295; IGROV-1; UACC-62; SR.
Assay in all cases: NCI anticancer screen, dose series, 48 h

Regarding `O=C(Cc1ccccc1)NCCc1ccc(O)c(O)c1`, the GI50 with HCT-116 is > 100 µM (inactive); in the experiment on SK-MEL-28 it was > 100 µM (inactive); with COLO 205, > 100 µM (inactive); with RXF 393, > 100 µM (inactive); with OVCAR-5, > 100 µM (inactive); in the experiment with MDA-N it was 17.4 µM (inactive). The GI50 in the experiment with Hs-578T is > 100 µM (inactive); in the experiment with MDA-MB-435 it was 17.9 µM (inactive); in the experiment on BT-549, 82.8 µM (inactive); in the experiment with SNB-75 it was > 100 µM (inactive); in the experiment with HL-60, 13.8 µM (inactive); in the experiment with MOLT-4 it was 16.6 µM (inactive). Further, the GI50 is 5.14 µM (inactive) in the experiment with CCRF-CEM; > 100 µM (inactive) in the experiment with SK-MEL-5; > 100 µM (inactive) with M14; > 100 µM (inactive) in the experiment with SF-295; 77.1 µM (inactive) in the experiment with IGROV-1; 48.9 µM (inactive) in the experiment with UACC-62. Moreover, the GI50 in the experiment on SR was 23.3 µM (inactive).
In the case of `COc1ccc(/C=C2\N=C(N3CCCCC3)NC2=O)cc1`, the GI50 in the experiment on HCT-116 was > 100 µM (inactive); with SK-MEL-28, > 100 µM (inactive); in the experiment with COLO 205, > 100 µM (inactive); with RXF 393, 64 µM (inactive); in the experiment with OVCAR-5 it was > 100 µM (inactive); in the experiment on MDA-N, 59 µM (inactive). The GI50 with Hs-578T was > 100 µM (inactive); in the experiment on MDA-MB-435, > 100 µM (inactive); with BT-549 it was > 100 µM (inactive); with SNB-75, 37.2 µM (inactive); with HL-60, > 100 µM (inactive); in the experiment on MOLT-4 it was > 100 µM (inactive). Besides, the GI50 in the experiment on CCRF-CEM was > 100 µM (inactive); in the experiment with M14, > 100 µM (inactive); in the experiment on SF-295 it was > 100 µM (inactive); with IGROV-1 it was > 100 µM (inactive); with UACC-62 it was > 100 µM (inactive); in the experiment on SR it was 72.1 µM (inactive).
For the compound `Nc1nc(N)c(/N=N/c2ccc(C(=O)O)c(O)c2)c(N)n1`, the GI50 in the experiment with HCT-116, in the experiment on SK-MEL-28, in the experiment on COLO 205, with RXF 393, with OVCAR-5 and in the experiment with MDA-N was > 100 µM (inactive) each time. Besides, the GI50 with Hs-578T, with MDA-MB-435, in the experiment with BT-549, in the experiment with SNB-75, with MOLT-4 and with CCRF-CEM was > 100 µM (inactive) throughout. Besides, the GI50 in the experiment on SK-MEL-5, with M14, with SF-295, in the experiment with IGROV-1, in the experiment on UACC-62 and in the experiment with SR was > 100 µM (inactive) in each case.
For the compound `O=C(NCCCc1cn[nH]c(=O)n1)c1cccc2nc3ccccc3nc12`, the GI50 in the experiment with HCT-116 was 42 µM (inactive); with SK-MEL-28, > 100 µM (inactive); with COLO 205, > 100 µM (inactive); in the experiment on RXF 393 it was 41.5 µM (inactive); in the experiment with OVCAR-5 it was > 100 µM (inactive); with MDA-N it was > 100 µM (inactive). Besides, the GI50 is > 100 µM (inactive) with Hs-578T; > 100 µM (inactive) in the experiment with MDA-MB-435; > 100 µM (inactive) with BT-549; > 100 µM (inactive) in the experiment with HL-60; 33.3 µM (inactive) with MOLT-4; > 100 µM (inactive) in the experiment on CCRF-CEM. Besides, the GI50 in the experiment with SK-MEL-5 is > 100 µM (inactive); in the experiment on M14, > 100 µM (inactive); with SF-295, 31.7 µM (inactive); in the experiment on IGROV-1, > 100 µM (inactive); with UACC-62 it was > 100 µM (inactive); with SR it was 40.6 µM (inactive).
On to `O=C(O)c1ccc(C(c2c(O)oc3ccccc3c2=O)c2c(O)oc3ccccc3c2=O)cc1`, for which the GI50 was > 100 µM (inactive) in the experiment with HCT-116; 15.2 µM (inactive) in the experiment on SK-MEL-28; 40.9 µM (inactive) in the experiment on COLO 205; > 100 µM (inactive) with RXF 393; 86.3 µM (inactive) with OVCAR-5; > 100 µM (inactive) in the experiment with MDA-N. Also, the GI50 in the experiment with Hs-578T is 5 µM (inactive); in the experiment on MDA-MB-435 it was > 100 µM (inactive); in the experiment with BT-549 it was > 100 µM (inactive); in the experiment on HL-60 it was 0.0397 µM (active); in the experiment with MOLT-4, > 100 µM (inactive); in the experiment with CCRF-CEM, 25.2 µM (inactive). Also, the GI50 in the experiment on SK-MEL-5 is > 100 µM (inactive); with M14, 43.1 µM (inactive); in the experiment with SF-295, > 100 µM (inactive); with UACC-62 it was > 100 µM (inactive); with SR it was 44.3 µM (inactive).
For the compound `O=[N+]([O-])/C=C/c1cn(CCCCCn2cc(/C=C/[N+](=O)[O-])c3ccccc32)c2ccccc12`, the GI50 is 0.283 µM (active) with HCT-116; 1.12 µM (active) in the experiment with SK-MEL-28; 4.3 µM (inactive) in the experiment on COLO 205; 0.582 µM (active) in the experiment with RXF 393; 9.55 µM (inactive) with OVCAR-5; 0.322 µM (active) with MDA-N. Also, the GI50 with Hs-578T is 1.87 µM (inactive); with MDA-MB-435 it was 0.953 µM (active); in the experiment on BT-549 it was 1.28 µM (inactive); in the experiment on HL-60, 0.787 µM (active); in the experiment with MOLT-4, 3.05 µM (inactive); in the experiment with CCRF-CEM it was 1.04 µM (active). In addition, the GI50 with SK-MEL-5 is 1.75 µM (inactive); in the experiment with M14, 1.44 µM (inactive); in the experiment on SF-295 it was 9.89 µM (inactive); in the experiment on IGROV-1, 2.23 µM (inactive); in the experiment with UACC-62, 6.95 µM (inactive); in the experiment on SR it was 0.973 µM (active).
In the case of `CC(=O)/C(=N\N=C(N)N)c1ccccc1`, the GI50 in the experiment on HCT-116 was > 100 µM (inactive); in the experiment with SK-MEL-28 it was > 100 µM (inactive); in the experiment on COLO 205, 35.1 µM (inactive); in the experiment with RXF 393, > 100 µM (inactive); in the experiment with OVCAR-5, > 100 µM (inactive); with MDA-N it was > 100 µM (inactive). In addition, the GI50 in the experiment with Hs-578T, in the experiment with MDA-MB-435, in the experiment with BT-549, in the experiment with SNB-75, with MOLT-4 and in the experiment on SK-MEL-5 was > 100 µM (inactive) each time. The GI50 in the experiment with M14, in the experiment with SF-295, with IGROV-1, with UACC-62 and in the experiment on SR was > 100 µM (inactive) in each case.
For the compound `Cc1ccc(O)c(C2=NNC(c3cccc(Cl)c3)C2)c1` (stereo not given), the GI50 with HCT-116 was 34 µM (inactive); with COLO 205, > 100 µM (inactive); in the experiment with RXF 393, 19.4 µM (inactive); in the experiment on OVCAR-5, > 100 µM (inactive); in the experiment on MDA-N, 28.3 µM (inactive); in the experiment with Hs-578T, 30.5 µM (inactive). Moreover, the GI50 in the experiment on MDA-MB-435 is 19 µM (inactive); with BT-549, > 100 µM (inactive); with HL-60 it was 41.7 µM (inactive); in the experiment with MOLT-4 it was 34 µM (inactive); with CCRF-CEM it was 31.8 µM (inactive); with SK-MEL-5, 54 µM (inactive). Further, the GI50 in the experiment on M14 is 87.5 µM (inactive); in the experiment on SF-295, 66.4 µM (inactive); in the experiment with IGROV-1 it was 5.69 µM (inactive); in the experiment with UACC-62, 39.7 µM (inactive); in the experiment on SR, 28.9 µM (inactive).
Regarding `CC[C@H](C)[C@@H]([C@@H](CC(=O)N1CCC[C@H]1[C@H](OC)[C@@H](C)C(=O)NCCc1ccccc1)OC)N(C)C(=O)C(NC(=O)[C@H](C(C)C)N(C)C)C(C)C` (stereo not given in full), the GI50 in the experiment with HCT-116 was 0.000255 µM (active); with SK-MEL-28, > 10 µM (inactive); in the experiment with COLO 205, 9.16e-05 µM (active); in the experiment with RXF 393 it was 0.000174 µM (active); with MDA-N it was 3.46e-05 µM (active); with Hs-578T it was 0.000446 µM (active). In addition, the GI50 with MDA-MB-435 is 3.18e-05 µM (active); in the experiment with BT-549, 0.000588 µM (active); in the experiment with SNB-75, 0.000275 µM (active); in the experiment on HL-60, 7.02e-05 µM (active); in the experiment on MOLT-4 it was 0.000132 µM (active); in the experiment on CCRF-CEM, 0.000219 µM (active). Also, the GI50 was 4.18e-05 µM (active) with SK-MEL-5; 0.000203 µM (active) in the experiment on M14; 0.000363 µM (active) in the experiment on IGROV-1; 0.000275 µM (active) in the experiment on UACC-62; 2.57e-05 µM (active) with SR.
For `COC(=O)c1c(O)ccc2c1c1c(n2Cc2ccccc2Cl)C(=O)c2ccccc2C1=O`, the GI50 is 10.5 µM (inactive) in the experiment on HCT-116; 15.6 µM (inactive) with SK-MEL-28; 4.13 µM (inactive) with COLO 205; 16.3 µM (inactive) in the experiment with RXF 393; 19.5 µM (inactive) in the experiment with OVCAR-5; 12.8 µM (inactive) with MDA-N. For the same compound, the GI50 is 21.6 µM (inactive) in the experiment with Hs-578T; 10.7 µM (inactive) with MDA-MB-435; 12.6 µM (inactive) in the experiment on BT-549; 16.9 µM (inactive) with HL-60; 7.03 µM (inactive) in the experiment with MOLT-4; 8.38 µM (inactive) in the experiment on CCRF-CEM. Further, the GI50 was 12.5 µM (inactive) with SK-MEL-5; 15.5 µM (inactive) with M14; 14.6 µM (inactive) in the experiment with SF-295; 13.6 µM (inactive) with IGROV-1; 14.8 µM (inactive) in the experiment with UACC-62; 14.6 µM (inactive) in the experiment on SR.
Take `c1csc(-c2cc(-c3ccsc3)c(-c3ccsc3)s2)c1`: the GI50 was > 100 µM (inactive) in the experiment on HCT-116; > 100 µM (inactive) in the experiment with SK-MEL-28; 89.7 µM (inactive) in the experiment on COLO 205; > 100 µM (inactive) in the experiment on RXF 393; > 100 µM (inactive) in the experiment on OVCAR-5; > 100 µM (inactive) in the experiment with MDA-N. Also, the GI50 with Hs-578T, in the experiment with MDA-MB-435, with BT-549, in the experiment on SNB-75, in the experiment with MOLT-4 and with CCRF-CEM was > 100 µM (inactive) each time. The GI50 in the experiment with SK-MEL-5, in the experiment on M14, with SF-295, in the experiment with IGROV-1, with UACC-62 and in the experiment on SR was > 100 µM (inactive) each time.

Source of the values: ChEMBL document CHEMBL1201862, “PubChem BioAssay data set” (2004).
